Reference: paper PMC1513218 (BMC Pharmacology, 2006)
Where a name gives a salt, the structure may show the parent alone.

Tests used:
[1] = molecular target: T1, anthrax lethal factor (LF) protease (Bacillus anthracis, UniProt P15917); test: biochemical; type: biochemical
[2] = molecular target: botulinum neurotoxin/A (BoNT/A) (Clostridium botulinum, UniProt P0DPI1); test: biochemical; type: biochemical
[3] = molecular target: MMP-9 (Homo sapiens, UniProt P14780); test: biochemical
[4] = molecular target: T1, anthrax lethal factor (LF) protease; type: biochemical
[5] = molecular target: furin (Homo sapiens, UniProt P09958); test: Furin inhibition, fluorogenic substrate cleavage assay; type: biochemical
Sequence of furin (P09958 108-794): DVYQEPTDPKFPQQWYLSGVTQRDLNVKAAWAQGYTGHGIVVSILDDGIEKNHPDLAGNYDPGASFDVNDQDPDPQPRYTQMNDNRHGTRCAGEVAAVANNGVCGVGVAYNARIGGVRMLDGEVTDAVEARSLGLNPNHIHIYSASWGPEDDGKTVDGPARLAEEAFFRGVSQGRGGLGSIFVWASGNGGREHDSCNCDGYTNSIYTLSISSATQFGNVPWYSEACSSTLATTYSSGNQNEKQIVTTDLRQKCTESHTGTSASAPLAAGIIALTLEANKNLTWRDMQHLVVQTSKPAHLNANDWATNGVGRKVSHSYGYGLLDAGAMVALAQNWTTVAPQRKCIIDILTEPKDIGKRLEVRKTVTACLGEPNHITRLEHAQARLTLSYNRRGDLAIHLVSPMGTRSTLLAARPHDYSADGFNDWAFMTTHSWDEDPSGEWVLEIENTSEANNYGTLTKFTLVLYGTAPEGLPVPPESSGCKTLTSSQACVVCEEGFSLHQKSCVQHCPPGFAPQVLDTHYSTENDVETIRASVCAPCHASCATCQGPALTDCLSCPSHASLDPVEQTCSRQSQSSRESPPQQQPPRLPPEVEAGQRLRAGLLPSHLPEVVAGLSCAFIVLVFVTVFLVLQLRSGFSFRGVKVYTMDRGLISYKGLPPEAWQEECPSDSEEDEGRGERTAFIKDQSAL

[6] = molecular target: trypsin (Homo sapiens, UniProt P07477); test: biochemical
[7] = molecular target: cathepsin B (Homo sapiens, UniProt P07858); test: biochemical
[8] = molecular target: cathepsin D (Homo sapiens, UniProt P07339); test: biochemical
Sequence of cathepsin D (P07339 65-412, species assumed): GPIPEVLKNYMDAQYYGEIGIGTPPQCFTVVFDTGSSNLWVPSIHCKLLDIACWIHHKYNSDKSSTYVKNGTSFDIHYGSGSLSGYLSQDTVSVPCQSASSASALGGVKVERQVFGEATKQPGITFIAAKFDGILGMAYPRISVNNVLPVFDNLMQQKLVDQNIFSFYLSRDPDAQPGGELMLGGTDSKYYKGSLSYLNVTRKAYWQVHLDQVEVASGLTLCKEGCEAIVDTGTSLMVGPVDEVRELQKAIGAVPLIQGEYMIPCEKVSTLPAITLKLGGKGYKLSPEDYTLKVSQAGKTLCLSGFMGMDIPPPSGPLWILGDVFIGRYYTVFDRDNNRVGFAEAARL

Sequence of botulinum neurotoxin/A (BoNT/A) (P0DPI1 whole entry, looked up): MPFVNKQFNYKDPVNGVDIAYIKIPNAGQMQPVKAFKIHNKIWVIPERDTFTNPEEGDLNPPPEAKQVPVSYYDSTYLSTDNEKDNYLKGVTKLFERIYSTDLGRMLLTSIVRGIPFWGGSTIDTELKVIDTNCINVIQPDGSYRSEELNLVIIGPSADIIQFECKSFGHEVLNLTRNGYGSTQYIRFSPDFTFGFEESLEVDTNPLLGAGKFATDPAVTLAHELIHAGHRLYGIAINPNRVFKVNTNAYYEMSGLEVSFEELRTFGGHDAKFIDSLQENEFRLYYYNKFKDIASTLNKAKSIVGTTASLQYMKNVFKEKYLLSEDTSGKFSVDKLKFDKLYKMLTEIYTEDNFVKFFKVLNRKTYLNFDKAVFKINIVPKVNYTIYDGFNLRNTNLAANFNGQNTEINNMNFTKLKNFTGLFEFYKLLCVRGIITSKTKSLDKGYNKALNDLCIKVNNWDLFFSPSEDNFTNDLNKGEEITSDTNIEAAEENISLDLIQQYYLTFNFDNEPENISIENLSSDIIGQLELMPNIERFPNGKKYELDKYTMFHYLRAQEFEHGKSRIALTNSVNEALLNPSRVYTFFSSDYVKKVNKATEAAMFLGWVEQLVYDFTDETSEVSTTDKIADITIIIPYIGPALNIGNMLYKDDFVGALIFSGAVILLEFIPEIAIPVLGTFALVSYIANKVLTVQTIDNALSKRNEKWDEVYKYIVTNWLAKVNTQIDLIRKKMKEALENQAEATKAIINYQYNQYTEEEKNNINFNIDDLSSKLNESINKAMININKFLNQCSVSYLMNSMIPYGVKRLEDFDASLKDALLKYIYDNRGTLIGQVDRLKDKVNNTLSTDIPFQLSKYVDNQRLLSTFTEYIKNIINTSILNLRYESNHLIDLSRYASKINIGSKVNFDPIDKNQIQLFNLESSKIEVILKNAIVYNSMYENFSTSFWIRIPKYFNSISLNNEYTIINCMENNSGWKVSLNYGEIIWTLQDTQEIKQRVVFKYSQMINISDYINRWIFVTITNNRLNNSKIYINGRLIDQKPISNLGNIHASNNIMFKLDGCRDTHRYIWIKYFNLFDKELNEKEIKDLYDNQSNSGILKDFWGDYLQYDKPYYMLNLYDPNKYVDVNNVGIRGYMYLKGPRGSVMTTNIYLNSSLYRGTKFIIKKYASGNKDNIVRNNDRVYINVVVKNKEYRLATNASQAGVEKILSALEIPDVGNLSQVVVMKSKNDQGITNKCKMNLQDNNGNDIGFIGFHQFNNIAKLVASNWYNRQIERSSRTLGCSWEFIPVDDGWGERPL
T1 sequence (P15917 34-809 limits assumed): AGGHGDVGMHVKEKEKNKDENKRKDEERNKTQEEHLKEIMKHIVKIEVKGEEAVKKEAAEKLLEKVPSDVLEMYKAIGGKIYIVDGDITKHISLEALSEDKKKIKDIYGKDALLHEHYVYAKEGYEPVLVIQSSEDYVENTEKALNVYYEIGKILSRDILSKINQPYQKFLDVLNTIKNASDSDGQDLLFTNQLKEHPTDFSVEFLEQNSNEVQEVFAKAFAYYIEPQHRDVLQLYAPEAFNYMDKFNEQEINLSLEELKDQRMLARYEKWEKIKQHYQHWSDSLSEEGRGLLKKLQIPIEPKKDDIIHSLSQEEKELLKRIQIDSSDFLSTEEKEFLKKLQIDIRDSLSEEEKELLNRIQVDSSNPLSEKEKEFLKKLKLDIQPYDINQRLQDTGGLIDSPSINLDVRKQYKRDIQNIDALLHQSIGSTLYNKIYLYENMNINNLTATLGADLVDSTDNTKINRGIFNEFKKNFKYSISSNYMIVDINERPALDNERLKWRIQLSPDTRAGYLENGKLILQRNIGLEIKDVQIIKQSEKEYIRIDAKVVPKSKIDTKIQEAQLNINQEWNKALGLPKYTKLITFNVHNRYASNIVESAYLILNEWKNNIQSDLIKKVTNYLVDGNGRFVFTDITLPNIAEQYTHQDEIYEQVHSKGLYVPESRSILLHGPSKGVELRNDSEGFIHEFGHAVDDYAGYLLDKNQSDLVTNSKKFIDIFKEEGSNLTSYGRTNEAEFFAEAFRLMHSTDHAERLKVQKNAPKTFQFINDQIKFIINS
Sequence of MMP-9 (P14780 94-707, species assumed): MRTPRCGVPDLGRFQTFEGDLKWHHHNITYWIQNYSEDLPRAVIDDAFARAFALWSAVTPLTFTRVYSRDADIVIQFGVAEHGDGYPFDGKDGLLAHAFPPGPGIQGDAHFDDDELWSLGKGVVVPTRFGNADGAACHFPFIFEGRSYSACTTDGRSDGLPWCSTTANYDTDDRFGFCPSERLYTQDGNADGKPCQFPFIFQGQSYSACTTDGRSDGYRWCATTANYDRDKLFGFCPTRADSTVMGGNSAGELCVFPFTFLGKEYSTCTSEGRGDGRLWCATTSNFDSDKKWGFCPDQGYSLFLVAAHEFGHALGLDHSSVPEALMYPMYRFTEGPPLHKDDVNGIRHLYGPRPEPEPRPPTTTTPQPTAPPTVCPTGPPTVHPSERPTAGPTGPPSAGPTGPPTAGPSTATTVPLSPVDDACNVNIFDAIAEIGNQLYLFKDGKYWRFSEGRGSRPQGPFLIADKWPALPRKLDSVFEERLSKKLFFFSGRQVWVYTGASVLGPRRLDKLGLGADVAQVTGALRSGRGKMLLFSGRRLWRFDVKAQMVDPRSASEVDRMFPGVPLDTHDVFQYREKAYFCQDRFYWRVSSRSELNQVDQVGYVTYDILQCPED

NC[C@H]1O[C@H](O[C@H]2[C@H](O)[C@@H](O)[C@H](N)C[C@@H]2N)[C@H](N)[C@@H](O)[C@@H]1O [Neamine (free base), Neamine]
Ki [1]: 31.1 ± 5.6 µM | IC50 [2]: 175 µM | Ki [3]: > 300 µM | effect of DNA or RNA on concentration-dependent LF inhibitory activity [4]: unaffected by DNA or RNA

CC(=O)N[C@@H](CCCNC(=N)N)C(=O)N[C@@H](CCCNC(=N)N)C(=O)N[C@@H](CCCNC(=N)N)C(=O)N[C@@H](CCCNC(=N)N)C(=O)N[C@@H](CCCNC(=N)N)C(=O)N[C@@H](CCCNC(=N)N)C(N)=O [Ac-RRRRRR-NH2]
Ki [1]: 0.12 µM

CNC(C)C1CCC(N)C(OC2C(N)CC(N)C(OC3OCC(C)(O)C(NC)C3O)C2O)O1 (stereo not drawn) [gentamicin]
LF inhibition (in words) [1]: inhibited LF enzyme activity

N=C(N)NC[C@@H]1O[C@H](O[C@H]2[C@@H](O)[C@H](O[C@@H]3[C@@H](O)[C@H](NC(=N)N)C[C@H](NC(=N)N)[C@H]3O[C@H]3O[C@H](CNC(=N)N)[C@@H](O)[C@H](O)[C@H]3NC(=N)N)O[C@@H]2CO)[C@H](NC(=N)N)[C@@H](O)[C@@H]1O [Neomycin B hexaguanyl hexatrifluoroacetate salt]
Ki [1]: 0.03 µM | IC50 [2]: 14 µM | Ki [3]: > 170 µM | Ki [5]: 1.5 µM

NC(N)=NCCC[C@H](NC(=O)[C@H](CCCN=C(N)N)NC(=O)[C@H](CCCN=C(N)N)NC(=O)[C@H](CCCN=C(N)N)NC(=O)[C@H](CCCN=C(N)N)NC(=O)[C@@H](N)CCCN=C(N)N)C(=O)O [H-RRRRRR-OH]
Ki [1]: 0.24 µM | Ki [5]: 0.06 µM

CNC(=O)[C@H](Cc1c[nH]c2ccccc12)NC(=O)[C@@H](CC(=O)NO)CC(C)C [GM 6001]
Ki [1]: 7.2 ± 1.76 µM | IC50 [2]: > 300 µM

CN[C@@H]1[C@@H](O)[C@@H](O[C@@H]2[C@@H](O)[C@H](O[C@H]3OC(CN)=CC[C@H]3N)[C@@H](N)C[C@H]2N)OC[C@]1(C)O [Sisomicin Sulfate]
Ki [1]: 1.8 µM | IC50 [2]: > 300 µM | Ki [3]: > 300 µM

N=C(N)NC[C@H]1O[C@H](O[C@H]2[C@H](O)[C@@H](O)[C@H](NC(=N)N)C[C@@H]2NC(=N)N)[C@H](NC(=N)N)[C@@H](O)[C@@H]1O [Tetraguanyl neamine, free base, Tetraguanyl neamine]
Ki [1]: 0.3 µM

NCCCCNCCCN [Spermidine]
Ki [1]: > 100 µM | LF inhibition (in words) [1]: weaker than spermine but were still concentration-dependent inhibitors | IC50 [2]: 76 µM

CC(=O)N[C@@H](CCCNC(=N)N)C(=O)N[C@@H](CCCNC(=N)N)C(=O)N[C@@H](CCCNC(=N)N)C(=O)N[C@@H](CCCNC(=N)N)C(=O)N[C@@H](CCCNC(=N)N)C(=O)N[C@@H](CCCNC(=N)N)C(=O)O [Ac-RRRRRR-OH]
Ki [1]: 0.29 ± 0.04 µM | Ki [5]: 0.05 µM

NC[C@@H]1O[C@H](O[C@H]2[C@@H](O)[C@H](O[C@@H]3[C@@H](O)[C@H](N)C[C@H](N)[C@H]3O[C@H]3O[C@H](CN)[C@@H](O)[C@H](O)[C@H]3N)O[C@@H]2CO)[C@H](N)[C@@H](O)[C@@H]1O [Neomycin B tris-sulfate]
Ki [1]: 0.71 ± 0.04 µM | IC50 [2]: 92.5 µM | Ki [3]: > 300 µM | right shift in potency as LF inhibitor caused by DNA [4]: ~ 10 fold

NCCC[C@H](N)C(=O)O [ornithine]
LF inhibition (in words) [1]: weaker than spermine but were still concentration-dependent inhibitors

N=C(N)NCCC[C@@H](N)C(=O)N[C@H](CCCNC(=N)N)C(=O)N[C@H](CCCNC(=N)N)C(=O)N[C@H](CCCNC(=N)N)C(=O)N[C@H](CCCNC(=N)N)C(=O)N[C@H](CCCNC(=N)N)C(N)=O [H-(D-Arg)-(D-Arg)-(D-Arg)-(D-Arg)-(D-Arg)-(D-Arg)-NH2]
Ki [1]: 0.04 ± 0.02 µM | Ki [5]: 0.06 µM

NCCCCN [Putrescine (1,4-diaminobutane), 1,4-diaminobutane]
Ki [1]: > 300 µM | IC50 [2]: > 300 µM | Ki [3]: > 300 µM

NCCCNCCCCNCCCN [Spermine, diphosphate salt]
Ki [1]: 0.9 ± 0.09 µM | IC50 [2]: 57 µM | Ki [2]: 46 ± 6 µM | fold weaker as botulinum protease inhibitor than as anthrax LF inhibitor [2]: > 40 fold | Ki [3]: > 300 µM | effect of DNA or RNA on concentration-dependent LF inhibitory activity [4]: unaffected by DNA or RNA | IC50 [6]: > 500 µM | IC50 [7]: > 500 µM | IC50 [8]: > 500 µM

CN[C@@H]1[C@@H](O[C@H]2O[C@H](CO)[C@@H](N)[C@H](O)[C@H]2O)OC2C[C@@H](N)[C@@H](O[C@H]3[C@H](O)[C@@H](O)[C@H](N)C[C@@H]3N)OC2[C@@H]1O (stereo partly drawn) [Apramycin]
Ki [1]: 111 µM | IC50 [2]: > 300 µM | Ki [3]: > 300 µM

NCC[C@H](O)C(=O)N[C@@H]1C[C@H](N)[C@@H](O[C@H]2O[C@H](CN)[C@@H](O)[C@H](O)[C@H]2O)[C@H](O)[C@H]1O[C@H]1O[C@H](CO)[C@@H](O)[C@H](N)[C@H]1O [Amikacin]
Ki [1]: 23.3 µM | IC50 [2]: > 300 µM | Ki [3]: > 300 µM
